# Measured values taken from patent US9051333B2, “6,7-dihydroimidazo [2,1-b] [1,3]oxazine bactericides” (OTSUKA PHARMACEUTICAL CO., LTD., priority 2011, dated 2015).
# Assays:
# [1] = tested on: Mycobacterium tuberculosis (M. tuberculosis H37Rv); experiment: Antimicrobial Assay (Agar Plate Dilution Method), M. tuberculosis H37Rv; format: cell-based; details: 336 h, 7H11 agar medium, cultured at 37° C. for 14 days, read-out: minimum inhibitory concentration
# [2] = tested on: Mycobacterium tuberculosis (M. tuberculosis kurono); experiment: Antimicrobial Assay (Agar Plate Dilution Method), M. tuberculosis kurono; format: cell-based; details: 336 h, M. tuberculosis kurono, 7H11 agar medium, cultured at 37° C. for 14 days, read-out: Minimum Inhibitory Concentration
SMILES,MIC [1] [ng/mL],MIC [2] [ng/mL]
"O=[N+]([O-])c1cn2c(n1)O[C@@H](COc1ccc(N3CCC(Cc4ccc(Oc5ccc(OC(F)(F)F)cc5)cc4)CC3)cc1)CC2 [Example 228, (R)-2-nitro-7-(4-{4-[4-(4-trifluoromethoxyphenoxy)benzyl]piperidin-1-yl}phenoxymethyl)-6,7-dihydro-5H-imidazo[2,1-b][1,3]oxazine]",≤ 0.4,0.8
"O=[N+]([O-])c1cn2c(n1)O[C@H](COc1ccc(-c3ccc(CN4CCC(Oc5ccc(OC(F)(F)F)cc5)CC4)cc3)cc1)CC2 [Example 282, (S)-2-nitro-7-{4′-[4-(4-trifluoromethoxyphenoxy)piperidin-1-ylmethyl]biphenyl-4-yloxymethyl}-6,7-dihydro-5H-imidazo[2,1-b][1,3]oxazine]",–,6
"O=[N+]([O-])c1cn2c(n1)O[C@@H](COc1ccc3nc(OCc4ccc(OC(F)(F)F)cc4)ccc3c1)CC2 [Example 153, 6-((R)-2-nitro-6,7-dihydro-5H-imidazo[2,1-b][1,3]oxazin-7-ylmethoxy)-2-(4-trifluoromethoxybenzyloxy)quinoline]",–,24
